Laboratory results: US6019988A, “Methods and compositions for enhancing skin permeation of drugs using permeation enhancers, when drugs and/or permeation enhancers are unstable in combination during long-term storage” (priority 1996, dated 2000)
Each block holds one compound with its values, some of them ahead of it.

Legend:
[1] = Solubility in water- or oil-based formulations; format: physicochemical
[2] = Plasma concentration after topical application to hairless rats; format: in vivo, hairless rat
[3] = not told
[4] = Stability in pharmaceutical solvents / excipients at 30 and 40 °C

solubility in water-based or oil-based formulations [1]: virtually insoluble
Structure (SMILES): CC(=C/C(=O)O)/C(=C/c1ccc2cc3c(cc2c1)C(C)(C)CCC3(C)C)c1cccc(C(=O)O)c1 [BMS-188184-01, (2Z,4Z)-3-methyl-4-(3-carboxyphenyl)-5-[(1,2,3,4-tetrahydro-1,1,4,4-tetramethyl)-6-anthracenyl]-2,4-pentadienoic acid]

concentration of drug in plasma ([2]; by 6 hours after topical application): below the limit of detection | Cmax ([2]; rat, plasma, topical or ocular, dual system 2% ointment + SLS cream, single topical dose, read-out: peak plasma concentrations): 2400 ng/mL | Tmax ([2]; rat, plasma, topical or ocular, dual system 2% ointment + SLS cream, single topical dose, read-out: time of peak plasma concentrations): 2 h | solubility in water-based or oil-based formulations [1]: soluble
Structure (SMILES): CC(=C/C(=O)O)/C(=C/c1ccc2cc3c(cc2c1)C(C)(C)CCC3(C)C)c1cccc(C(=O)O)c1 [BMS-188184-02, (2Z,4Z)-3-methyl-4-(3-carboxyphenyl)-5-[(1,2,3,4-tetrahydro-1,1,4,4-tetramethyl)-6-anthracenyl]-2,4-pentadienoic acid]

shelf life in these solvents ([4]; 30° C., propylene glycol, Transcutol, ethanol SD-40, PEG-8, water): less than 10 days | stability in various pharmaceutical solvents ([4]; propylene glycol, Transcutol, ethanol SD-40, PEG-8, water, 30° C. and 40° C.): poor
Structure (SMILES): CC(=C/C(=O)O)/C(=C/c1ccc2cc3c(cc2c1)C(C)(C)CCC3(C)C)c1cccc(C(=O)O)c1 [BMS-188184, (2Z,4Z)-3-methyl-4-(3-carboxyphenyl)-5-[(1,2,3,4-tetrahydro-1,1,4,4-tetramethyl)-6-anthracenyl]-2,4-pentadienoic acid]
long-term (storage) stability in formulations / with permeation enhancers [3]: stable in GEAHLENE base containing mineral oil and in petrolatum ointment containing fatty acid esters

remaining at 240 h ([4]; pharmaceutical solvents): < 90%
Structure (SMILES): CC(=C/C(=O)O)/C(=C/c1ccc2cc3c(cc2c1)C(C)(C)CCC3(C)C)c1cccc(C(=O)O)c1 [BMS-188184-05]
